Patent publication US20040138245A1, “Product comprising mikanolide, dihydromikanolide or an analogue thereof combine with another anti-cancer agent for therapeutic use in cancer treatment” (priority 2001, published 2004)
Several values for one entry are separate records, joined by “and”; a condition that tells them apart may be missing. Identical values can stand only once.

Test system: HT-29 (human colon cancer cells)
Experiment: Measurement of cellular proliferation in vitro (WST1 colorimetric test, 120 hours)
Format: cell-based
Details: HT29 cells
Procedure: The cell line HT-29 (human colon cancer cells) was acquired from the American Tissue Culture Collection (Rockville, Md., USA).
The HT-29 cells (4000 cells/wells) are cultured on 96-well plates.
On day 0, these cells are seeded in 90 μl of Dulbecco's modified Eagle medium (Gibco-Brl, Cergy-Pontoise, France) completed with 10% of foetal calf serum inactivated by heating (Gibco-Brl, Cergy-Pontoise, France), 50000 units/l of penicillin and 50 mg/l of streptomycin (Gibco-Brl, Cergy-Pontoise, France), and 2 mM of glutamine (Gibco-Brl, Cergy-Pontoise, France).
The cells were treated simultaneously with concentrations of the compounds to be tested singly or in combination for 120 hours.
At the end of the of this period, quantification of the cellular proliferation is evaluated by colorimetric test based on the cleavage of the tetrazolium salt WST1 by the mitochondrial […] in the living cells leading to the formation of formazan (Boehringer Mannheim, Meylan, France). These tests are carried out four times with 6 determinations for each single product and for each combination tested. This allows determination of the number of living cells at the end of each treatment.

4-(2-bromophenyl)-1-(2-(1-((4-cyano-3-methoxy)phenylmethyl)imidazo-5-yl)-1-oxoethyl)-1,2-dihydro-8-fluoroimidazol[1,2a][1,4]-benzodiazepine [Example B4]
% of living cells (single compound at 5 μM): 93% and 78%

C[C@H]1C(=O)O[C@H]2C[C@]3(C)O[C@@H]3[C@@H]3O[C@@H]3C3=C[C@@H](OC3=O)[C@@H]21 [Example A1, dihydromikanolide]
% of living cells (single compound at 5 μg/ml): 61% and 64%

[NH2][Pt]([NH2])([Cl])[Cl] [Example B1, cisplatin, reference compound]
% of living cells (single compound at 6.25 μM): 48%

NC(CS)C(=O)N1CCn2cc(-c3ccccc3)nc2C1CC1CCCCC1 (stereo not drawn) [Example B2, 7-(2-amino-1-oxo-3-thiopropyl)-8-(cyclohexylmethyl)-2-phenyl-5,6,7,8-tetrahydroimidazo[1,2a]pyrazine]
% of living cells (single compound at 25 μM): 37% and 64%

CC(C)[C@H](CO)Nc1nc(NCc2cccnc2)n2ncc(Br)c2n1 [Example B3, 8-bromo-2-(1R-isopropyl-2-hydroxyethylamino)-4-(3-pyridylmethylamino)pyrazolo[1,5-a]-1,3,5-triazine]
% of living cells (single compound at 100 nM): 104%

hydrochloride of 8-(dimethylamino)-3,10a-dimethyl-2,6-dioxodecahydro-4,7-methenofuro[3,2-c]oxireno[f]oxacycloundecin-9-yl 2-naphthylcarbamate [Example A2]
% of living cells (single compound at 5 μM): 67% and 72% and 55%
